Test results reported in a compilation of properties of binary mixtures (doi:10.1021/je401124t).

Assay: xn = mol fraction of the nth substance listed
Conditions: 101 kPa

CCCO + COP(=O)([O-])OC.Cn1cc[n+](C)c1
x1 = 1
Conditions | viscosity [mPa·s]
293.15 K | 2.188
298.15 K | 1.974
303.15 K | 1.761
308.15 K | 1.575
313.15 K | 1.416
318.15 K | 1.273
323.15 K | 1.15

CCO + COP(=O)([O-])OC.Cn1cc[n+](C)c1
x1 = 1
Conditions | viscosity [mPa·s]
293.15 K | 1.192
298.15 K | 1.085
303.15 K | 0.99
308.15 K | 0.906
313.15 K | 0.831
318.15 K | 0.764
323.15 K | 0.704

COP(=O)([O-])OC.Cn1cc[n+](C)c1 + CO
viscosity [mPa·s]
Conditions | x2 = 0 | x2 = 0.1054 | x2 = 0.2009 | x2 = 0.2977 | x2 = 0.3984 | x2 = 0.5028 | x2 = 0.6018 | x2 = 0.7027 | x2 = 0.8002 | x2 = 0.8998
293.15 K | 416 | 278 | 174.8 | 111.5 | 68 | 36.25 | – | 10.21 | 4.9 | –
298.15 K | – | 201.1 | 121.9 | – | – | 29.9 | 17.07 | 9.02 | 4.419 | 1.776
303.15 K | 210 | 149.7 | – | 67.9 | 43.95 | – | 14.7 | 8.01 | 4.006 | 1.642
308.15 K | 155.6 | 114.3 | – | 54.4 | 36.27 | – | 12.81 | 7.16 | 3.65 | 1.523
313.15 K | 119.2 | 89.4 | 60.5 | 44.4 | 30.38 | 18.06 | 11.25 | 6.44 | 3.336 | 1.416
318.15 K | 92.8 | – | 49.2 | 36.86 | 25.8 | 15.62 | 9.96 | – | 3.061 | 1.322
323.15 K | 74.2 | 58.3 | 40.66 | – | 22.16 | – | 8.88 | 5.3 | 2.82 | 1.243

CC(C)O + COP(=O)([O-])OC.Cn1cc[n+](C)c1
x1 = 1
Conditions | viscosity [mPa·s]
293.15 K | 2.439
298.15 K | 2.134
303.15 K | 1.845
308.15 K | 1.603
313.15 K | 1.4
318.15 K | 1.228
323.15 K | 1.083

COP(=O)([O-])OC.Cn1cc[n+](C)c1 + CCO
viscosity [mPa·s]
Conditions | x2 = 0 | x2 = 0.0999 | x2 = 0.2028 | x2 = 0.3009 | x2 = 0.4074 | x2 = 0.5028 | x2 = 0.6 | x2 = 0.6992 | x2 = 0.7999 | x2 = 0.9
293.15 K | 416 | 339 | 246 | 134.3 | 77.7 | – | – | 13.76 | – | –
298.15 K | 291 | 238 | 182.5 | 98.7 | – | 30.76 | – | 11.97 | 5.6 | 2.824
303.15 K | 210 | – | 138.5 | 78.5 | 48.7 | 25.78 | 18.08 | 10.5 | – | 2.567
308.15 K | 155.6 | 130.7 | 106.8 | 62.9 | 39.62 | – | 15.59 | – | 4.509 | 2.341
313.15 K | 119.2 | 100.8 | 84 | 51 | 32.73 | 18.94 | 13.59 | 8.27 | 4.077 | 2.143
318.15 K | – | 79.1 | 67 | 41.98 | 27.44 | 16.42 | 11.88 | 7.41 | – | 1.97
323.15 K | 74.2 | – | 54.4 | 35.06 | 23.3 | 14.35 | 10.51 | 6.68 | 3.378 | –

COP(=O)([O-])OC.Cn1cc[n+](C)c1 + CCCO
viscosity [mPa·s]
Conditions | x2 = 0 | x2 = 0.098 | x2 = 0.1993 | x2 = 0.3018 | x2 = 0.4 | x2 = 0.5002 | x2 = 0.5996 | x2 = 0.6995 | x2 = 0.799 | x2 = 0.8998
293.15 K | 416 | 296 | 211 | – | 85.2 | 50.8 | 29.52 | 17.53 | 9.79 | 4.441
298.15 K | – | 215 | 154.1 | 93 | 66.9 | 41.59 | 25.38 | 15.17 | 8.63 | 3.929
303.15 K | 210 | 159 | – | 74.1 | 53.6 | – | – | 13.16 | 7.61 | 3.492
308.15 K | 155.6 | 121.1 | – | 59.5 | 43.67 | 28.52 | 18.35 | 11.51 | 6.76 | 3.118
313.15 K | 119.2 | 93.9 | 71.2 | 48.5 | 36.1 | 24.02 | – | 10.13 | 6.04 | 2.795
318.15 K | 92.8 | – | 57.8 | 39.92 | – | – | 13.79 | 8.97 | 5.42 | 2.516
323.15 K | 74.2 | 60.9 | 47.8 | – | 25.67 | 17.68 | – | 8 | – | 2.273

COP(=O)([O-])OC.Cn1cc[n+](C)c1 + CC(C)O
viscosity [mPa·s]
Conditions | x2 = 0 | x2 = 0.0999 | x2 = 0.2032 | x2 = 0.301 | x2 = 0.402 | x2 = 0.5002 | x2 = 0.6 | x2 = 0.7009 | x2 = 0.7997 | x2 = 0.9013
293.15 K | – | – | 254 | 173.1 | – | 67 | 38.35 | 21.3 | 11.44 | 5.77
298.15 K | 291 | 253 | – | 129.9 | 75.3 | – | 31.53 | – | 9.87 | 5
303.15 K | 210 | 184.2 | 136.2 | 99.8 | 61.1 | – | 26.2 | 15.37 | 8.59 | 4.361
308.15 K | 155.6 | 138.2 | 105 | 78.4 | 49.7 | 35.62 | 22.05 | – | 7.54 | –
313.15 K | – | – | – | – | 40.99 | 29.78 | 18.74 | 11.54 | 6.64 | 3.359
318.15 K | 92.8 | 82.8 | – | 51.5 | 33.95 | – | 16.13 | – | 5.89 | 2.969
323.15 K | 74.2 | 66.4 | 54 | 42.88 | 28.66 | – | 14.03 | 8.94 | 5.25 | –

CO + COP(=O)([O-])OC.Cn1cc[n+](C)c1
x1 = 1
Conditions | viscosity [mPa·s]
293.15 K | 0.586
298.15 K | 0.552
308.15 K | 0.491
313.15 K | 0.465
323.15 K | 0.418
